Measured values: patent US8912121B2, “Herbicidal compositions comprising 4-amino-3-chloro-5-fluoro-6-(4-chloro-2-fluoro-3-methoxyphenyl)pyridine-2-carboxylic acid or a derivative thereof and certain PS II inhibitors” (Dow Agrosciences LLC, priority 2012, dated 2014)
Where “and” joins values, the source holds several entries; their conditions need not be identical. Equal values may be shown once.

Tests used:
[1] = tested on: ECHCG (Echinochloa crusgalli, barnyardgrass); assay: In-water applied mixtures, transplanted paddy rice, greenhouse; format: in vivo, Echinochloa crusgalli (L.) Beauv.; details: 21 DAA
Procedure: Weed seeds or nutlets of the desired test plant species were planted in puddled soil (mud) prepared by mixing a shredded, non-sterilized mineral soil (50.5 percent silt, 25.5 percent clay, and 24 percent sand, with a pH of about 7.6 and an organic matter content of about 2.9 percent) and water at a 1:1 volumetric ratio. The prepared mud was dispensed in 365 mL aliquots into 16-ounce (oz.) non-perforated plastic pots with a surface area of 86.59 square centimeters (cm^2) leaving a headspace of 3 centimeters (cm) in each pot Mud was allowed to dry overnight prior to planting or transplanting. Rice seeds were planted in Sun Gro MetroMix® 306 planting mixture, which typically has a pH of 6.0 to 6.8 and an organic matter content of about 30 percent, in plastic plug trays. Seedlings at the second or third leaf stage of growth were transplanted into 840 mL of mud contained in 32-oz. non-perforated plastic pots with a surface area of 86.59 cm^2 4 days prior to herbicide application. The paddy was created by filling the headspace of the pots with 2.5 to 3 cm of water. When required to ensure good germination and healthy plants, a fungicide treatment and/or other chemical or physical treatment was applied. The plants were grown for 4-22 days in a greenhouse with an approximate 14 h photoperiod which was maintained at about 29° C during the day and 26° C. during the night. Nutrients were added as Osmocote® (19:6:12, N:P:K+ minor nutrients) at 2 g per 16-oz. pot and 4 g per 32-oz. pot. Water was added on a regular basis to maintain the paddy flood, and supplemental lighting was provided with overhead metal halide 1000-Watt lamps as necessary. The plants were employed for testing when they reached the first through fourth true leaf stage. […]
Treatment requirements for each compound or herbicidal component were calculated based upon the rates being tested, the concentration of active ingredient or acid equivalent in the formulation, an application volume of 2 mL per component per pot, and an application area of 86.59 cm^2 per pot.
For formulated compounds, a measured amount was placed in an individual 100 or 200 mL glass vial and was dissolved in a volume of 1.25% (v/v) Agri-Dex® crop oil concentrate to obtain application solutions. […]
The treated plants and control plants were placed in a greenhouse as described above and water was added as needed to maintain a paddy flood. After approximately 3 weeks the condition of the test plants as compared with that of the untreated plants was determined visually and scored on a scale of 0 to 100 percent where 0 corresponds to no injury or growth inhibition and 100 corresponds to complete kill. […]

[2] = tested on: COMBE (Commelina benghalensis, Benghal dayflower); assay: Postemergence foliar-applied mixtures, direct seeded rice, greenhouse; format: in vivo, Commelina benghalensis L.; details: 20 DAA
From the text: Seeds or nutlets of the desired test plant species were planted in a soil matrix prepared by mixing a loam or sandy loam soil (e.g., 28.6 percent silt, 18.8 percent clay, and 52.6 percent sand, with a pH of about 5.8 and an organic matter content of about 1.8 percent) and calcareous grit in an 80 to 20 ratio. The soil matrix was contained in plastic pots with a volume of 1 quart and a surface area of 83.6 square centimeters (cm^2). When required to ensure good germination and healthy plants, a fungicide treatment and/or other chemical or physical treatment was applied. The plants were grown for 8-22 days in a greenhouse with an approximate 14 h photoperiod which was maintained at about 29° C. during the day and 26° C. during the night. Nutrients (Peters Excel® 15-5-15 5-Ca 2-Mg and iron chelate) were applied in the irrigation solution as needed and water was added on a regular basis. Supplemental lighting was provided with overhead metal halide 1000-Watt lamps as necessary. The plants were employed for testing when they reached the first through fourth true leaf stage. […]
Treatment requirements were calculated based upon the rates being tested, the concentration of active ingredient or acid equivalent in the formulation, and a 12 mL application volume at a rate of 187 L/ha.
For treatments comprised of formulated compounds, measured amounts of compounds were placed individually in 25 mL glass vials and diluted in a volume of 1.25% (v/v) Agri-Dex® crop oil concentrated to obtain 12× stock solutions. […]
For treatments comprised of formulated and technical compounds, weighed amounts of the technical materials were placed individually in 25 mL glass vials and dissolved in a volume of 97:3 v/v acetone/DMSO to obtain 12× stock solutions, and measured amounts of the formulated compounds were placed individually in 25 mL glass vials and diluted in a volume of 1.5% (v/v) crop oil concentrate or water to obtain 12× stock solutions. […]

Compound: COc1c(Cl)ccc(-c2nc(C(=O)O)c(Cl)c(N)c2F)c1F [Compound A Acid, 4-amino-3-chloro-6-(4-chloro-2-fluoro-3-methoxyphenyl)-5-fluoropyridine-2-carboxylic acid]
- Visual Weed Control (%) Obs ([1]; 8.75 g ae/ha): 0%
- Visual Weed Control (%) Obs ([1]; 17.5 g ae/ha): 0%

Compound: COc1c(Cl)ccc(-c2nc(C(=O)OCc3ccccc3)c(Cl)c(N)c2F)c1F [Compound A Benzyl Ester, benzyl ester of 4-amino-3-chloro-5-fluoro-6-(4-chloro-2-fluoro-3-methoxy-phenyl)pyridine-2-carboxylic acid]
- Visual Weed Control (%) Obs ([2]; 6 g ae/ha): 80% and 70%

Compound: CCC(=O)Nc1ccc(Cl)c(Cl)c1 [Propanil, N-(3,4-dichlorophenyl)propanamide, reference compound]
- Visual Weed Control (%) Obs ([2]; 3360 g ai/ha): 10%
